Measurements: ChEMBL document CHEMBL4385656, “Ciprofloxacin-1,2,3-triazole-isatin hybrids tethered via amide: Design, synthesis, and in vitro anti-mycobacterial activity evaluation” (Bioorg Med Chem Lett, 2019)
Values after ≈ are worked out from the molar mass of the structure shown.

The molecules below were run on Mycobacterium tuberculosis (assay: Potency index, ratio of MIC for ciprofloxacin to MIC for test compound for anti-mycobacterial activity against isoniazid and rifampicin-resistant Mycobacterium tuberculosis).
Type: functional

| SMILES | Ratio |
| --- | --- |
| O=C1C(=O)N(Cc2cn(CC(=O)N3CCN(c4cc5c(cc4F)c(=O)c(C(=O)O)cn5C4CC4)CC3)nn2)c2ccccc21 | >=16 |

These molecules were tested on Mycobacterium tuberculosis (assay: Potency index, ratio of MIC for rifampicin to MIC for test compound for anti-mycobacterial activity against isoniazid and rifampicin-resistant Mycobacterium tuberculosis).
Type: functional

| SMILES | Ratio |
| --- | --- |
| O=C1C(=O)N(Cc2cn(CC(=O)N3CCN(c4cc5c(cc4F)c(=O)c(C(=O)O)cn5C4CC4)CC3)nn2)c2ccccc21 | >=16 |

The molecules below were run on Mycobacterium tuberculosis (assay: Potency index, ratio of MIC for isoniazid to MIC for test compound for anti-mycobacterial activity against isoniazid and rifampicin-resistant Mycobacterium tuberculosis).
Type: functional

| SMILES | Ratio |
| --- | --- |
| O=C1C(=O)N(Cc2cn(CC(=O)N3CCN(c4cc5c(cc4F)c(=O)c(C(=O)O)cn5C4CC4)CC3)nn2)c2ccccc21 | >=16 |

What follows are molecules tested on Mycobacterium tuberculosis (assay: Anti-mycobacterial activity against isoniazid and rifampicin-resistant Mycobacterium tuberculosis).
Type: functional

| SMILES | MIC [µg/mL] |
| --- | --- |
| CCO/N=C1/C(=O)N(Cc2cn(CC(=O)N3CCN(c4cc5c(cc4F)c(=O)c(C(=O)O)cn5C4CC4)CC3)nn2)c2ccccc21 | 16 (≈ 24.9 µM) |
| CO/N=C1/C(=O)N(Cc2cn(CC(=O)N3CCN(c4cc5c(cc4F)c(=O)c(C(=O)O)cn5C4CC4)CC3)nn2)c2ccc(F)cc21 | 16 (≈ 24.7 µM) |
| CCO/N=C1/C(=O)N(Cc2cn(CC(=O)N3CCN(c4cc5c(cc4F)c(=O)c(C(=O)O)cn5C4CC4)CC3)nn2)c2ccc(C)cc21 | 32 (≈ 48.7 µM) |
| NNC(=O)c1ccncc1 [ISONIAZID] | > 64 |
| CO/N=C1/C(=O)N(Cc2cn(CC(=O)N3CCN(c4cc5c(cc4F)c(=O)c(C(=O)O)cn5C4CC4)CC3)nn2)c2ccc(C)cc21 | 8 (≈ 12.4 µM) |
| CCO/N=C1/C(=O)N(Cc2cn(CC(=O)N3CCN(c4cc5c(cc4F)c(=O)c(C(=O)O)cn5C4CC4)CC3)nn2)c2c(F)cccc21 | 32 (≈ 48.4 µM) |
| CO/N=C1/C(=O)N(Cc2cn(CC(=O)N3CCN(c4cc5c(cc4F)c(=O)c(C(=O)O)cn5C4CC4)CC3)nn2)c2c(F)cccc21 | 32 (≈ 49.5 µM) |
| O=C1C(=O)N(Cc2cn(CC(=O)N3CCN(c4cc5c(cc4F)c(=O)c(C(=O)O)cn5C4CC4)CC3)nn2)c2ccccc21 | 0.12 (≈ 0.2 µM) |
| CO/N=C1/C(=O)N(Cc2cn(CC(=O)N3CCN(c4cc5c(cc4F)c(=O)c(C(=O)O)cn5C4CC4)CC3)nn2)c2ccccc21 | 8 (≈ 12.7 µM) |
| O=C1C(=O)N(Cc2cn(CC(=O)N3CCN(c4cc5c(cc4F)c(=O)c(C(=O)O)cn5C4CC4)CC3)nn2)c2c(F)cccc21 | 2 (≈ 3.24 µM) |
| Cc1ccc2c(c1)C(=O)C(=O)N2Cc1cn(CC(=O)N2CCN(c3cc4c(cc3F)c(=O)c(C(=O)O)cn4C3CC3)CC2)nn1 | 2 (≈ 3.26 µM) |
| CCO/N=C1/C(=O)N(Cc2cn(CC(=O)N3CCN(c4cc5c(cc4F)c(=O)c(C(=O)O)cn5C4CC4)CC3)nn2)c2ccc(F)cc21 | 16 (≈ 24.2 µM) |
| O=C1C(=O)N(Cc2cn(CC(=O)N3CCN(c4cc5c(cc4F)c(=O)c(C(=O)O)cn5C4CC4)CC3)nn2)c2ccc(F)cc21 | 1 (≈ 1.62 µM) |
| O=C(O)c1cn(C2CC2)c2cc(N3CCNCC3)c(F)cc2c1=O [CIPROFLOXACIN] | 2 (≈ 6.04 µM) |
| CO[C@H]1/C=C/O[C@@]2(C)Oc3c(C)c(O)c4c(O)c(c(/C=N/N5CCN(C)CC5)c(O)c4c3C2=O)NC(=O)/C(C)=C\C=C\[C@H](C)[C@H](O)[C@@H](C)[C@@H](O)[C@@H](C)[C@H](OC(C)=O)[C@@H]1C [RIFAMPIN] | > 64 |
